Source: ChEMBL document CHEMBL1142751, “Synthesis and biological activity of mustard derivatives of combretastatins” (Bioorg Med Chem Lett, 2005)

Tested on: SH-SY5Y
Experiment: Inhibitory concentration against Human SH-SY5Y neuroblastoma cells
Type: functional, cell-based

SMILES | IC50
COc1ccc(/C=C\c2cc(OC)c(OC)c(OC)c2)cc1OCCN(CCCl)CCCl | 0.23 µM
COc1ccc(/C=C\c2cc(OC)c(OC)c(OC)c2)cc1OC(=O)CCCc1ccc(N(CCCl)CCCl)cc1 | 0.00064 µM
COc1ccc(/C=C\c2cc(OC)c(OC)c(OC)c2)cc1N(CCO)CCO | > 10 µM
COc1ccc(/C=C\c2cc(OC)c(OC)c(OC)c2)cc1O [COMBRETASTATIN A4] | 0.0015 µM
COc1ccc(/C=C\c2cc(OC)c(OC)c(OC)c2)cc1N(CCCl)CCCl | 0.86 µM
